Laboratory results taken from PubChem BioAssay (NCI).
Several values for one entry are separate records, joined by “and”; a condition that tells them apart may be missing. Identical values can stand only once.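 The compound was tested at five concentrations on cells cultured in 96-well plates, with a 48-hour exposure period. GI50: concentration for 50% inhibition of growth. At the TGI there is no net growth.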

Key:
Experiment in all cases: DTP human tumour cell line panel, 48 h
NCI-H23 lung = system: NCI-H23 lung
U251 CNS = system: U251 CNS
HL-60(TB) leukemia = system: HL-60(TB) leukemia
CCRF-CEM leukemia = system: CCRF-CEM leukemia
MOLT-4 leukemia = system: MOLT-4 leukemia
TK-10 renal = system: TK-10 renal
NCI/ADR-RES ovarian = system: NCI/ADR-RES ovarian
SR leukemia = system: SR leukemia
MDA-N = system: MDA-N
EKVX NSCLC = system: EKVX NSCLC

| Compound | TGI (NCI-H23 lung) [µM] | TGI (U251 CNS) [µM] | TGI (HL-60(TB) leukemia) [µM] | TGI (CCRF-CEM leukemia) [µM] | TGI (MOLT-4 leukemia) [µM] | TGI (TK-10 renal) [µM] | TGI (NCI/ADR-RES ovarian) [µM] | TGI (SR leukemia) [µM] | TGI (MDA-N) [µM] | TGI (EKVX NSCLC) [µM] | GI50 (HL-60(TB) leukemia) | GI50 (MOLT-4 leukemia) |
| --- | --- | --- | --- | --- | --- | --- | --- | --- | --- | --- | --- | --- |
| NC(=O)N/N=C(/CC1C(=O)Oc2ccccc21)c1ccccc1O (stereo unspecified) | > 100 | > 100 | 51 | 56.9 | 50.9 | > 100 | 98.2 | 40.8 | > 100 | > 100 |  |  |
| O=C(O)C(O)C(O)C(=O)O (stereo unspecified) |  | > 100 | > 100 | > 100 | > 100 | > 100 | > 100 | > 100 | > 100 | > 100 |  |  |
| COC(CN(C(C)=O)C1CCC2(SCCS2)c2[nH]c3ccccc3c21)OC (stereo unspecified) | > 100 | > 100 | > 100 | > 100 | > 100 | > 100 | > 100 | > 100 | > 100 | > 100 |  |  |
| CCOC(=O)C1=C(O)C2C3CC4C2C(O)=C(C(=O)OCC)C2C1C3C42 (stereo unspecified) | > 100 | > 100 | > 100 | > 100 | > 100 | > 100 | 35.2 | > 100 | > 100 | > 100 |  |  |
| Cc1ccc(/C=N/n2c(-c3ccc(C)cc3)n[nH]c2=O)cc1 | > 100 | > 100 | > 100 | > 100 | > 100 | > 100 | > 100 | 61.3 | > 100 | > 100 |  |  |
| O=C(c1nc2ccc([N+](=O)[O-])cc2[nH]c1=O)C(O)c1ccc2c(c1)OCO2 (stereo unspecified) | > 100 | > 100 | > 100 | > 100 | > 100 | > 100 | > 100 | > 100 | > 100 | > 100 |  |  |
| Cc1ccc(SC2C(=O)C3CC(OCc4ccccc4)C2(C)C3(C)C)cc1 (stereo unspecified) | > 100 | > 100 | > 100 | > 100 | > 100 | > 100 | > 100 | > 100 | > 100 | > 100 |  |  |
| COc1cc2c(cc1OC)C(=O)N(c1ccc(O)cc1)C2=O | > 100 | > 100 | > 100 | > 100 | > 100 | > 100 | > 100 | > 100 | > 100 | > 100 |  |  |
| COC(=O)C1Cc2cc3c(cc2C1=O)CCCC3 (stereo unspecified) | > 100 | > 100 | > 100 | > 100 | > 100 | > 100 | > 100 | > 100 | > 100 | > 100 |  |  |
| C#C/C=C\CCCC/C=C\C#CC#CCCCC#CC#C[C@H](COS(=O)(=O)O)OS(=O)(=O)O | > 100 | > 100 | > 100 | > 100 | > 100 | > 100 | > 100 | > 100 | > 100 | > 100 |  |  |
| CC[C@@]1(O)C(=O)OCc2c1cc1n(c2=O)Cc2c-1nc1ccccc1c2/C=N\NC(=O)C1CCCN1 (stereo partly specified) | 0.965 | 11.2 | > 100 | > 100 |  | > 100 | 20.5 | 1.73 | > 100 | > 100 |  |  |
| O=C(OC1C2OC(=O)c3cc(O)c(O)c(O)c3Oc3cc4c(c(O)c3O)-c3c(cc(O)c(O)c3O)C(=O)OCC3OC(O)C(OC(=O)c5cc(O)c(O)c(O)c5Oc5cc6c(c(O)c5O)-c5c(cc(O)c(O)c5O)C(=O)OC1C(COC6=O)OC2O)C(OC(=O)c1cc(O)c(O)c(O)c1)C3OC4=O)c1cc(O)c(O)c(O)c1 (stereo unspecified) | 62.6 |  | 44.4 | > 100 | 12.2 | > 100 | > 100 | 27.3 | 46.6 | 37.9 |  |  |
| Cc1ccc(NC=O)c(-c2c(N)[nH]c(=S)[nH]c2=O)c1 | > 100 |  | > 100 | > 100 | > 100 | > 100 | > 100 | > 100 | > 100 | > 100 |  |  |
| CCCC(CCC(N)=O)(CCC(N)=O)[N+](=O)[O-] | > 100 | > 100 | > 100 | > 100 | > 100 | > 100 | > 100 | > 100 | > 100 | > 100 |  |  |
| COc1ccc2nc(-c3ccccc3)cc(OCC(=O)O)c2c1 | > 100 | > 100 | > 100 | > 100 | > 100 | > 100 | > 100 | > 100 | > 100 | > 100 |  |  |
| COc1ccc(-n2c(N)c(C#N)[nH]c2=O)cc1 | > 10 | > 10 | > 10 | > 10 | > 10 | > 10 | > 10 | > 10 | > 10 | > 10 |  |  |

| Compound | TGI (NCI-H23 lung) [µM] | TGI (U251 CNS) [µM] | TGI (HL-60(TB) leukemia) [µM] | TGI (CCRF-CEM leukemia) [µM] | TGI (MOLT-4 leukemia) [µM] | TGI (TK-10 renal) [µM] | TGI (NCI/ADR-RES ovarian) [µM] | TGI (SR leukemia) [µM] | TGI (MDA-N) [µM] | TGI (EKVX NSCLC) [µM] | GI50 (HL-60(TB) leukemia) | GI50 (MOLT-4 leukemia) |
| --- | --- | --- | --- | --- | --- | --- | --- | --- | --- | --- | --- | --- |
| Cc1ccc2c(c1)C(=O)c1nc(C)ccc1C2=O | 56.7 | > 100 | 70.3 | > 100 | > 100 | > 100 | 59.1 | > 100 | 39.9 | > 100 |  |  |
| c1ccc2c(c1)c1c(n2CCOCCN2CCCC2)CCCC1 | 65.2 | 25.8 | 30.4 | 51 | 34.3 | 37 | 44.3 | 35.2 | 35.8 | 75.2 |  |  |
| Clc1ccc(C2=NN=C3C(c4ccccc4)=Nc4ccccc4N3C2)cc1 | > 100 | > 100 | 17.6 | 15.2 | > 23.2 | > 50.2 | > 100 | > 21.9 | > 100 | > 27.1 |  |  |
| c1cc2c(cc1NC1=NCCO1)OCO2 | > 100 | > 100 | > 100 | > 21.1 | > 100 | > 100 | > 100 | > 100 | > 100 | > 100 |  |  |
| Nc1[nH]nc(Nc2ccc(Cl)cc2)c1P(=O)(c1ccccc1)c1ccccc1 | > 100 | > 100 | 82.3 | 86.1 | > 100 | > 100 | 52.3 | > 100 | 47.4 | > 100 |  |  |
| COc1ccc(-n2[nH]nc(C(N)=O)c2=O)cc1 | > 100 | > 100 | > 100 | > 100 | > 100 |  | > 100 | > 100 | > 100 | > 100 |  |  |
| C=C(C(=O)O)[C@@H]1C[C@@H]2O[C@H]1[C@@H](O)[C@@H](C)CCCC(C)=CCC[C@@]2(C)O | > 100 | > 100 | > 100 | > 100 | > 100 | > 100 | > 100 | > 95 | > 100 | > 100 | 10.5 µM and 32.5 µM | 27.2 µM and 56.9 µM |
| COc1cc(C(C)O)c(S(=O)(=O)CC(C)O)nn1 (stereo unspecified) | > 100 |  | > 100 | > 100 | > 100 | > 100 | > 100 | > 100 | > 100 | > 100 |  |  |
| C=C1C(=O)O[C@H]2C[C@@]3(COC(C)=O)C=COC=C(COC(=O)C(C)C)C3CC12 (stereo partly specified) | > 100 | > 100 | 63.2 | 63.8 | > 100 | > 100 | > 100 | 91.8 | > 100 | > 100 |  |  |
| O=S(=O)(Nc1nc2ccccc2nc1Nc1ccc2ccccc2c1)c1ccccc1 | 41.3 | > 100 | 68.9 | > 77.3 | 65.1 | > 82.7 | > 100 | > 87.4 | > 100 | > 100 |  |  |
| Cc1nc(C)c(N2CCN(S(=O)(=O)N(Cc3ccccc3)Cc3ccccc3)CC2)c(=O)[nH]1 | 56.5 | 20.4 | > 100 | > 100 | > 100 | > 72.9 | > 100 | > 100 | > 100 | > 100 |  |  |
| O=C(/C=C/c1ccccc1)CSc1ncn[nH]1 | > 100 | > 100 | > 100 | > 100 | > 100 | > 100 | > 100 | > 100 | > 100 | > 100 |  |  |
| CC1(C)OC2[C@@H](CO[C@@]3([C@@H](O)CCO)OC(C)(C)O[C@@H]23)O1 (stereo partly specified) | > 100 | > 100 | > 100 | > 100 | > 100 | > 100 | > 100 | > 100 | > 100 | > 100 |  |  |
| O=C1CC(c2ccccc2)C2(C(=O)NC(=S)NC2=O)C(c2ccccc2)C1 (stereo unspecified) | > 75 | > 75 | > 75 | > 75 | > 75 | > 75 | > 75 | > 75 | > 75 | > 75 |  |  |
| CCOC(=O)c1c(N=P(c2ccccc2)(c2ccccc2)c2ccccc2)nnc(-c2ccccc2)c1-c1ccccc1 | > 100 | > 100 | > 100 | > 100 | > 100 | > 100 | > 100 | > 100 | > 100 | > 100 |  |  |
